Data as given in the supplement of paper PMC10307832.

Key:
Experiment in all cases: relative viability (nuclei count vs DMSO), 5 days (fraction); higher = more cells survive
NCI-H1355 = tested on: NCI-H1355
Procedure, shortened: (§1)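 Lung cancer cell lines in 1536-well plates were dosed by pin tool the day after seeding, either with one drug alone or with a fixed anchor-drug dose plus five library-drug doses (not always all listed) in √10 steps. After 5 days, cells were fixed and their nuclei stained in one step (final 0.05% Triton X-100, 1% formaldehyde, 1 ug/ml Hoechst), then counted on 4× images. Relative viability is the nuclei count in treated wells divided by that in vehicle wells. Values are medians of duplicate plates.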

SW 900 = tested on: SW 900
Procedure, shortened: as §1

NCI-H3122 = tested on: NCI-H3122
Procedure, shortened: as §1

NCI-H1755 = tested on: NCI-H1755
Procedure, shortened: as §1

NCI-H520 = tested on: NCI-H520
Procedure, shortened: as §1

NCI-H358 = tested on: NCI-H358
Procedure, shortened: as §1

A-427 = tested on: A-427
Procedure, shortened: as §1

EKVX = tested on: EKVX
Procedure, shortened: as §1

NCI-H1666 = tested on: NCI-H1666
Procedure, shortened: as §1

NCI-H650 = tested on: NCI-H650
Procedure, shortened: as §1

NCI-H1650 = tested on: NCI-H1650
Procedure, shortened: as §1

NCI-H2228 = tested on: NCI-H2228
Procedure, shortened: as §1

NCI-H838 = tested on: NCI-H838
Procedure, shortened: as §1

NCI-H322M = tested on: NCI-H322M
Procedure, shortened: as §1

NCI-H1944 = tested on: NCI-H1944
Procedure, shortened: as §1

NCI-H441 = tested on: NCI-H441
Procedure, shortened: as §1

NCI-H2347 = tested on: NCI-H2347
Procedure, shortened: as §1

LK-2 = tested on: LK-2
Procedure, shortened: as §1

ChaGo-K-1 = tested on: ChaGo-K-1
Procedure, shortened: as §1

SW 1573 = tested on: SW 1573
Procedure, shortened: as §1

NCI-H2085 = tested on: NCI-H2085
Procedure, shortened: as §1

NCI-H460 = tested on: NCI-H460
Procedure, shortened: as §1

NCI-H1734 = tested on: NCI-H1734
Procedure, shortened: as §1

H3255 = tested on: H3255
Procedure, shortened: as §1

## CCCCCCCCCCCC1=C(O)C(=O)C=C(O)C1=O [Embelin] + CC(=O)c1c(C)c2cnc(Nc3ccc(N4CCNCC4)cn3)nc2n(C2CCCC2)c1=O [Palbociclib] (partner 0.5 µM)
NCI-H1355; first compound 0.08 µM
  relative viability: 0.411
NCI-H1355; first compound 0.8 µM
  relative viability: 0.416
NCI-H1355; first compound 2.53 µM
  relative viability: 0.398
NCI-H1355; first compound 8 µM
  relative viability: 0.366
SW 900; first compound 0.08 µM
  relative viability: 0.644
SW 900; first compound 0.8 µM
  relative viability: 0.576
SW 900; first compound 2.53 µM
  relative viability: 0.668
SW 900; first compound 8 µM
  relative viability: 0.549
NCI-H3122; first compound 0.08 µM
  relative viability: 0.18
NCI-H3122; first compound 0.8 µM
  relative viability: 0.236
NCI-H3122; first compound 2.53 µM
  relative viability: 0.175
NCI-H3122; first compound 8 µM
  relative viability: 0.186
NCI-H1755; first compound 0.08 µM
  relative viability: 0.471
NCI-H1755; first compound 0.8 µM
  relative viability: 0.483
NCI-H1755; first compound 2.53 µM
  relative viability: 0.376
NCI-H1755; first compound 8 µM
  relative viability: 0.427
NCI-H520; first compound 0.08 µM
  relative viability: 0.303
NCI-H520; first compound 0.8 µM
  relative viability: 0.186
NCI-H520; first compound 2.53 µM
  relative viability: 0.246
NCI-H520; first compound 8 µM
  relative viability: 0.214
NCI-H358; first compound 0.08 µM
  relative viability: 0.133
NCI-H358; first compound 0.8 µM
  relative viability: 0.161
NCI-H358; first compound 2.53 µM
  relative viability: 0.141
NCI-H358; first compound 8 µM
  relative viability: 0.131
A-427; first compound 0.08 µM
  relative viability: 0.525
A-427; first compound 0.8 µM
  relative viability: 0.563
A-427; first compound 2.53 µM
  relative viability: 0.526
A-427; first compound 8 µM
  relative viability: 0.496
EKVX; first compound 0.08 µM
  relative viability: 0.411
EKVX; first compound 0.8 µM
  relative viability: 0.432
EKVX; first compound 2.53 µM
  relative viability: 0.466
EKVX; first compound 8 µM
  relative viability: 0.394
NCI-H1666; first compound 0.08 µM
  relative viability: 0.638
NCI-H1666; first compound 0.8 µM
  relative viability: 0.624
NCI-H1666; first compound 2.53 µM
  relative viability: 0.641
NCI-H1666; first compound 8 µM
  relative viability: 0.681
NCI-H650; first compound 0.08 µM
  relative viability: 0.272
NCI-H650; first compound 0.8 µM
  relative viability: 0.407
NCI-H650; first compound 2.53 µM
  relative viability: 0.34
NCI-H650; first compound 8 µM
  relative viability: 0.313
NCI-H1650; first compound 0.08 µM
  relative viability: 0.358
NCI-H1650; first compound 0.8 µM
  relative viability: 0.406
NCI-H1650; first compound 2.53 µM
  relative viability: 0.38
NCI-H1650; first compound 8 µM
  relative viability: 0.354
NCI-H2228; first compound 0.08 µM
  relative viability: 0.824
NCI-H2228; first compound 0.8 µM
  relative viability: 0.865
NCI-H2228; first compound 2.53 µM
  relative viability: 0.68
NCI-H2228; first compound 8 µM
  relative viability: 0.834
NCI-H838; first compound 0.08 µM
  relative viability: 0.249
NCI-H838; first compound 0.8 µM
  relative viability: 0.232
NCI-H838; first compound 2.53 µM
  relative viability: 0.224
NCI-H838; first compound 8 µM
  relative viability: 0.21
NCI-H322M; first compound 0.08 µM
  relative viability: 0.456
NCI-H322M; first compound 0.8 µM
  relative viability: 0.528
NCI-H322M; first compound 2.53 µM
  relative viability: 0.493
NCI-H322M; first compound 8 µM
  relative viability: 0.512
NCI-H1944; first compound 0.08 µM
  relative viability: 0.346
NCI-H1944; first compound 0.8 µM
  relative viability: 0.405
NCI-H1944; first compound 2.53 µM
  relative viability: 0.381
NCI-H1944; first compound 8 µM
  relative viability: 0.306
NCI-H441; first compound 0.08 µM
  relative viability: 0.217
NCI-H441; first compound 0.8 µM
  relative viability: 0.221
NCI-H441; first compound 2.53 µM
  relative viability: 0.193
NCI-H441; first compound 8 µM
  relative viability: 0.195
NCI-H2347; first compound 0.08 µM
  relative viability: 0.47
NCI-H2347; first compound 0.8 µM
  relative viability: 0.387
NCI-H2347; first compound 2.53 µM
  relative viability: 0.451
NCI-H2347; first compound 8 µM
  relative viability: 0.389
LK-2; first compound 0.08 µM
  relative viability: 0.647
LK-2; first compound 0.8 µM
  relative viability: 0.753
LK-2; first compound 2.53 µM
  relative viability: 0.806
LK-2; first compound 8 µM
  relative viability: 0.702
ChaGo-K-1; first compound 0.08 µM
  relative viability: 0.911
ChaGo-K-1; first compound 0.8 µM
  relative viability: 1.01
ChaGo-K-1; first compound 2.53 µM
  relative viability: 1.01
ChaGo-K-1; first compound 8 µM
  relative viability: 0.981
SW 1573; first compound 0.08 µM
  relative viability: 0.344
SW 1573; first compound 0.8 µM
  relative viability: 0.498
SW 1573; first compound 2.53 µM
  relative viability: 0.37
SW 1573; first compound 8 µM
  relative viability: 0.422
NCI-H2085; first compound 0.08 µM
  relative viability: 0.441
NCI-H2085; first compound 0.8 µM
  relative viability: 0.464
NCI-H2085; first compound 2.53 µM
  relative viability: 0.502
NCI-H2085; first compound 8 µM
  relative viability: 0.469
NCI-H460; first compound 0.08 µM
  relative viability: 0.169
NCI-H460; first compound 0.8 µM
  relative viability: 0.227
NCI-H460; first compound 2.53 µM
  relative viability: 0.134
NCI-H460; first compound 8 µM
  relative viability: 0.156
NCI-H1734; first compound 0.08 µM
  relative viability: 0.347
NCI-H1734; first compound 0.8 µM
  relative viability: 0.349
NCI-H1734; first compound 2.53 µM
  relative viability: 0.392
NCI-H1734; first compound 8 µM
  relative viability: 0.346
H3255; first compound 0.08 µM
  relative viability: 0.324
H3255; first compound 0.8 µM
  relative viability: 0.347
H3255; first compound 2.53 µM
  relative viability: 0.328
H3255; first compound 8 µM
  relative viability: 0.295
